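1) Cells in 96-well plates. 2) Compound, 48 h, 5 concentrations. 3) Linear interpolation between surrounding doses. 4) Unreached endpoint = highest concentration. GI50 marks 50% less growth. TGI denotes the concentration required for complete inhibition of growth.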
Experiments:
Experiment in all cases: growth of human tumour cells (NCI), 48 h
ACHN renal = test system: ACHN renal
BT-549 breast = test system: BT-549 breast
HCC-2998 colon = test system: HCC-2998 colon
HOP-92 NSCLC = test system: HOP-92 NSCLC
M14 melanoma = test system: M14 melanoma
NCI/ADR-RES ovarian = test system: NCI/ADR-RES ovarian
OVCAR-5 ovarian = test system: OVCAR-5 ovarian
SF-295 CNS = test system: SF-295 CNS
SK-MEL-28 melanoma = test system: SK-MEL-28 melanoma
UACC-62 melanoma = test system: UACC-62 melanoma

Row | Compound | GI50 (ACHN renal) [µM] | TGI (ACHN renal) [µM] | GI50 (BT-549 breast) [µM] | TGI (BT-549 breast) [µM] | GI50 (HCC-2998 colon) [µM] | TGI (HCC-2998 colon) [µM] | GI50 (HOP-92 NSCLC) [µM] | TGI (HOP-92 NSCLC) [µM] | GI50 (M14 melanoma) [µM] | TGI (M14 melanoma) [µM] | GI50 (NCI/ADR-RES ovarian) [µM] | TGI (NCI/ADR-RES ovarian) [µM] | GI50 (OVCAR-5 ovarian) [µM] | TGI (OVCAR-5 ovarian) [µM] | GI50 (SF-295 CNS) [µM] | TGI (SF-295 CNS) [µM] | GI50 (SK-MEL-28 melanoma) [µM] | TGI (SK-MEL-28 melanoma) [µM] | GI50 (UACC-62 melanoma) [µM] | TGI (UACC-62 melanoma) [µM]
1 | O=C1Nc2ccc(CN3CCOC3=O)cc2/C1=C/c1cc(CN2CCOCC2)c[nH]1 | 56 | > 100 | 23.5 | > 79.5 | 61 | > 100 | 32 | > 92.3 | 34 | > 93.9 | 34.6 | > 100 | > 100 | > 100 | 2.16 | > 100 | 58 | > 100 | 34.4 | > 100
2 | CC(C)C[C@H]1C(=O)N2CCC[C@H]2[C@]2(O)O[C@](NC(=O)[C@@H]3C=C4c5cccc6[nH]c(Br)c(c56)C[C@H]4N(C)C3)(C(C)C)C(=O)N12 | – | > 100 | – | > 100 | – | > 100 | – | > 100 | – | > 100 | – | > 100 | – | > 100 | – | > 100 | – | > 100 | – | > 100
3 | Cc1ncc([N+](=O)[O-])n1CCNC(=O)Cn1ccnc1[N+](=O)[O-] | – | > 100 | – | > 100 | – | > 100 | – | – | – | > 100 | – | > 100 | – | > 100 | – | > 100 | – | > 100 | – | > 100
4 | O=C(c1ccccc1)c1ccc(O)c2ncccc12 | 3.46 | 15.7 | 5.96 | 68.5 | 16.7 | 41.1 | 2.89 | 16.5 | 2.7 | 19.5 | 0.428 | 6.03 | 4.87 | 22.3 | 3.78 | > 100 | 14.6 | > 100 | 2.34 | 10.6
5 | C=C1C(=O)O[C@H]2[C@H]1CC/C(COC(=O)C(=O)c1c[nH]c3ccc(Cl)cc13)=C\CC[C@@]1(C)O[C@@H]21 | 1.32 | 2.7 | 1.38 | 3.19 | 1.8 | 3.36 | 1.86 | 3.42 | 1.59 | 3.62 | 1.94 | 4.94 | 2.1 | 5.17 | 5.77 | 18.6 | 1.88 | 3.92 | 1.28 | 3.54
6 | CCCC(CCC)Oc1ccc(CCCC2=C(O)c3ccccc3C(=O)C2=O)cc1 | 6.69 | 19 | 8.74 | 20.9 | 2.8 | 10.1 | – | – | 9.35 | 22.2 | 5.36 | 22.5 | 11.8 | 25.8 | 2.1 | 10.4 | 10.1 | 21.7 | 3.16 | 17
7 | Cc1cc(S(=O)(=O)Nc2nc3ccccc3[nH]2)c(SCc2ccccc2)cc1Cl | 32.8 | > 100 | > 100 | > 100 | 21.4 | > 100 | 62.2 | > 100 | > 100 | > 100 | > 100 | > 100 | > 100 | > 100 | 21.3 | > 100 | > 100 | > 100 | > 100 | > 100

Reference: PubChem BioAssay (NCI)
